Measured values reported in patent US7189526B2, “Apparatus for culture, process for preparing apparatus for culture, and culturing method” (Kyokuto Pharmaceutical Industrial Co., Ltd., priority 2002, dated 2007).

Tests used:
[1] = Diffusion or elution of trypan blue from trypan blue-containing agarose gel to PBS in a hollow; type: physicochemical; conditions: 0.5 w/v % agarose gel, 37° C., absorbance at 550 nm
Experimental: To 5 ml of distilled water, 0.05 g of agarose (Takara, L 03 “TaKaRa”) was suspended (concentration: 1 w/v %). Then, to dissolve the agarose the suspension was heated at 121° C. for 15 minutes in an autoclave (Tomy Seiko, SS-320). A bottle containing the thus-obtained agarose solution was immersed in a water incubator set at 41° C. and the agarose solution was cooled to be 41° C.
While, a 0.3% trypan blue-containing 2×PBS solution (phosphate buffered saline, 2×PBS) was prepared. This solution was sterilized by making the solution pass through a nitrocellulose filter membrane having a pore size of 0.2 μm. A bottle containing the sterilized 0.3% trypan blue-containing 2×PBS solution was immersed in a water incubator set at 41° C. and the solution was heated to be 41° C. […]
At appropriate time intervals, 0.02 ml of the PBS (it seemed that this contained trypan blue) in the hollow that had been made in the center of the gel layer in a well of the culture plate was taken out. […] The absorbance of the diluted PBS was determined at a wave length of 550 nm. The background was determined by using a diluted PBS (concentration: ⅕) containing no trypan blue. The value that was obtained by subtracting the absorbance of the background from that of the PBS that had been taken out from the PBS in the hollow and had diluted was specified as a true absorbance of the diluted PBS. […]

hybridoma KNA14.2 [2] = conditions: method of the present invention; three days; 5×10^5 cells per ml; [A(+), H(+)]
Experimental: The cell culture in Example 3 was repeated except that a hybridoma suspension containing hybridoma KNA14.2 in an amount of 5×10^5 per ml was used instead of the hybridoma suspension containing that hybridoma in an amount of 1×10^6 per ml.
Three days after the culture was started, states of cells that were cultured in a RPMI1640 medium solution containing aminopterin and serum ([A(+), H(−)]) and that were cultured in a RPMI1640 medium solution containing aminopterin, HT supplements, and serum ([A(+), H(+)]) were photographed under a microscope (magnification: ×200).
FIGS. 17 and 18 show cells that were cultured in the RPMI1640 medium solution containing aminopterin and serum ([A(+), H(−)]) and cells that were cultured in the RPMI1640 medium solution containing aminopterin, HT supplements, and serum ([A(+), H(+)]), respectively, by the method of the present invention (culture in a hollow that was formed in a gel).

hybridoma KNA14.2 [3] = assay: Inhibition against cell proliferation by aminopterin and its compensation by hypoxantin, amount of LDH of living cells; type: cell-based; conditions: for level of compensation of inhibition against cell proliferation by aminopterin: four days' culture, 1×10^5 cells per ml; for compensation of inhibition against cell proliferation by aminopterin: six days' culture, low hypoxantin concentration [A(+), H(0.1+)]
Experimental: In a medium bottle, 0.2 g of Agarose (Takara, L 03 “TaKaRa”) was suspended in 20 ml of ultrapure water (concentration: 1 w/v %). Then, to dissolve the agarose the suspension was heated at 121° C. for 15 minutes in an autoclave (Tomy Seiko, SS-320). A bottle containing the thus-obtained agarose solution was immersed in a water incubator set at 41° C. and the agarose solution was cooled to be 41° C.
While, 10.4 g of a powdery GIBCO™ Medium RPMI 1640 (INVITROGEN CORPORATION, Cat. No. 31800-014) was dissolved in 500 ml of ultrapure water (concentration: about twice the final concentration). This solution was sterilized by making the solution pass through a nitrocellulose filter membrane having a pore size of 0.2 μm. Thus, 2×RPMI 1640 medium solution was prepared.
To 100 ml of the 2×RPMI 1640 medium solution, 100 ml of heat-inactivated bovine fetal serum was added under a aseptic condition. The thus-obtained heat-inactivated bovine fetal serum/2×RPMI 1640 medium solution was poured into four sterile bottles in an amount of 30 ml per bottle. The sterile bottles were immersed in a water incubator set at 41° C. and the medium solutions therein were heated to be 41° C.
The concentration of aminopterin became twice that in the HAT medium.
The concentrations of hypoxanthine and thymidine became twice those in the HAT medium.
To a medium solution containing aminopterin in another sterile bottle, the HT supplements were added in amounts such that their total volume is one-five hundredth ( 1/500) of the total volume of the medium solution containing aminopterin and the HT supplements. The concentrations of hypoxanthine and thymidine became one-fifth of those in a HAT medium. The sterile bottles were continuously heated at 41° C.
Then, at 41° C., 20 ml of the 1 w/v % agarose solution was mixed with 20 ml of medium solution No. 3 under an aseptic condition. By this, concentrations of the culture medium components of RPMI 1640 medium, heat-inactivated bovine fetal serum, aminopterin, and HT supplements, each of which had been prepared in an concentration of twice the final concentration, became one half of their concentrations in medium solution No. 3.
While, 10 ml of ultrapure water which had been sterilized by filtration was added to 10 ml of medium solution No. 3. […] This solution was used as a control solution.
After the mixed solution was poured into the wells, the culture plate was left cooling down for 60 minutes or more under room temperatures. Thus, the mixed solution was gelatinized. Hereafter, the gelatinized mixed solution will be designated as “an aminoprerin/HT-containing agarose gel.”
In each well the layer of the aminoprerin/HT-containing agarose gel was punched out in its center by using a biopsy punch having a diameter of 6 mm to form a hollow.
Into each of the thus-formed hollows, 0.17 ml of the culture medium solution not containing agarose (i.e., the control solution) was poured.

[4] = Diffusion or elution of IL-2 from IL-2-containing agarose gel to culture medium solution in a hollow (ELISA); type: physicochemical; conditions: 37° C.
Experimental: Agarose (Takara, L 03 “TaKaRa”) was added to ultrapure water in a ratio of 1 gram per 100 ml of the water and was suspended (concentration: 1 w/v %). Then, to dissolve the agarose the suspension was heated at 121° C. for 15 minutes in an autoclave (Tomy Seiko, SS-320). A bottle containing the thus-obtained agarose solution was immersed in a water incubator set at 41° C. and the agarose solution was cooled to be 41° C.
While, a powdery GIBCO™ Medium RPMI 1640 (INVITROGEN CORPORATION, Cat. No. 31800-014) (glutamine was contained) was added to ultrapure water in a ratio of 10.4 gram per 500 ml of the water and was dissolved (concentration: about twice the final concentration). This solution was sterilized by making the solution pass through a nitrocellulose filter membrane having a pore size of 0.2 μm. Thus, 2×RPMI 1640 medium solution was prepared.
To 30 ml of this medium solution, 2-mercaptoethanol, penicillin, and streptomycin were added under an aseptic condition in such amounts as to be concentrations of 100 μM, 50 U/ml, and […], respectively. Then, to the thus-obtained solution, 6 ml of heat-inactivated bovine fetal serum was added. To the thus-obtained heat-inactivated bovine fetal serum/2×RPMI 1640 medium solution, interleukin 2 (IL-2, mouse, recombinant, SIGMA I-0523) was added in a ratio of 5 ng per ml of the solution. […]
At appropriate time intervals after the solution was poured into the hollows, from three hollows solutions were taken out in an amount of 0.02 ml per hollow. […] Then, by using mouse IL-2 Elisa Ready-SET-Go! (e-Bioscience, Cat. No. 88-70224-77), IL-2 concentrations of the samples were determined according to the protocol stated in the instruction.
The numerical values of the vertical axis were calculated as follows: After the solutions in the hollows were taken out, the IL-2-containing agarose gel was crushed and a solution was squeezed of the gel. For this solution an IL-2 concentration was determined in the same way as explained above. […]

For Cc1cc(-c2ccc(/N=N/c3c(S(=O)(=O)O)cc4cc(S(=O)(=O)O)cc(N)c4c3O)c(C)c2)ccc1/N=N/c1c(S(=O)(=O)O)cc2cc(S(=O)(=O)O)cc(N)c2c1O [trypan blue], the “concentration of trypan blue in PBS in the hollow relative to the equilibrium value” ([1]; one hour after incubation started) was “above 50%” and the “concentration of trypan blue in PBS in the hollow relative to the equilibrium value” ([1]; three hours after incubation started) was “above 80%”.

In the case of O=c1[nH]cnc2nc[nH]c12 [hypoxantin, hypoxanthine], the “compensation of inhibition against cell proliferation by aminopterin (cell number and states under microscope)” value (hybridoma KNA14.2 [2]) is reported as “compensated”, the “compensation of inhibition against cell proliferation by aminopterin through the salvage pathway” value (hybridoma KNA14.2 [3]; [A(+), H(0.1+)] and [A(+), H(+)], 1×10^6 cells per ml, two, three and four days, hollows formed in gels) is reported as “compensated” and the “level of compensation of inhibition against cell proliferation by aminopterin” value (hybridoma KNA14.2 [3]; conventional method (ninety-six-well culture plate), [A(+), H(0.1+)] and [A(+), H(+)]) is reported as “about 40%”. For the same molecule, the “compensation of inhibition against cell proliferation by aminopterin” value (hybridoma KNA14.2 [3]; conventional method) was “scarecely compensated”, the “level of compensation of inhibition against cell proliferation by aminopterin” value (hybridoma KNA14.2 [3]; method of the present invention (hollow formed in a gel), [A(+), H(0.1+)] and [A(+), H(+)]) was “about 100%” and the “compensation of inhibition against cell proliferation by aminopterin” value (hybridoma KNA14.2 [3]; method of the present invention) was “compensated with hypoxantin in the same level as that in the culture using the hypoxantin in its usual concentration”.

B1: IL-2: interleukin 2 (IL-2, mouse, recombinant, SIGMA I-0523) (protein, UniProt P04351 21-169, looked up)
Interleukin-2: APTSSSTSSSTAEAQQQQQQQQQQQQHLEQLLMDLQELLSRMENYRNLKLPRMLTFKFYLPKQATELKDLQCLEDELGPLRHVLDLTQSKSFQLEDAENFISNIRVTVVKLKGSDNTFECQFDDESATVVDFLRRWIAFCQSIISTSPQ
In the case of B1, the “IL-2 concentration of the solution in the hollow relative to the equilibrium value” ([4]; forty-eight hours after incubation started) is reported as “about 70%”, the “IL-2 concentration of the solution in the hollow relative to the equilibrium value” ([4]; two hours after incubation started) is reported as “about 10%” and the “IL-2 concentration of the solution in the hollow relative to the equilibrium value” ([4]; within six hours) is reported as “at least 30%”.
